Assays:
[1] = system: patients with Crohn's disease; details: cited from earlier work
[2] = target: T1, p38β (Homo sapiens, UniProt Q15759); assay: Differential scanning fluorimetry (DSF), p38β; format: binding
T1 construct: HA (N); made in house; host or cells: E. coli BL21

[3] = system: HMVECL monolayers; assay: Endothelial permeability assay (10 kDa dextran flux); format: cell-based, human; details: TNFα and 39.5° C. for 6 h
Protocol: Endothelial permeability assay: Permeability of HMVECL monolayers was assessed by measuring transendothelial flux of 10 kDa dextran conjugated to Cascade blue fluorescent dye for 30 min at 37° C. in Matrigel-coated 3 μm pore size Transwell plates.

[4] = system: IL-8-directed neutrophil TEM through HMVECLs; assay: Neutrophil transendothelial migration (TEM) assay; format: cell-based, human; details: HMVECLs 39.5° C. 6 h
Protocol: Neutrophil transendothelial migration (TEM) assay: Neutrophils were isolated from heparinized venous blood that was collected from healthy volunteers using a protocol approved by the University of Maryland Institutional Review Board and TEM of calcein-labeled neutrophils through HMVECLs was measured.

[5] = system: p38-dependent phosphorylation of MK2; assay: Inhibition of substrate phosphorylation in HeLa cells, MK2; format: cell-based, human; details: 10 μM SB203580 or 50 μM UM101 30 min, then anisomycin
Source text: (§1) Cell extracts prepared in RIPA buffer containing protease and phosphatase inhibitors were resolved by SDS-PAGE, transferred to PVDF membrane, blocked with 5% nonfat dry milk, probed with primary antibodies against phosphorylated MK2 and Stat-1, and total p38α as a loading control. Bands were detected using secondary antibodies conjugated to infrared fluorophores and infrared fluorescence imaging (Odyssey; LICOR).

[6] = system: p38-dependent phosphorylation of Stat-1; assay: Inhibition of substrate phosphorylation in HeLa cells, Stat-1; format: cell-based, human; details: 10 μM SB203580 or 50 μM UM101 30 min, then anisomycin
Source text: as §1

[7] = system: p38α vs. p38β; details: cited from earlier work
[8] = system: HMVECLs; assay: TNFα-induced gene expression in HMVECLs (RNASeq); details: 10 μM SB203580
[9] = system: LPS/hyperthermia-induced ALI; assay: Mouse LPS/hyperthermia-induced acute lung injury model, pretreatment; details: for mice died within 24 h: 1000 μg i.p. 30 min prior to 50 μg LPS i.t. and hyperthermia
[10] = system: LPS-induced lung inflammation; assay: Mouse acute lung injury, pretreatment i.p. 1 mg (FIG. 9); format: in vivo; details: pretreated i.p. 1 mg, then 100 mg LPS i.t. at 39° C.
Protocol: Mice were pretreated i.p. with 1 mg of test compounds and then treated with […] LPS i.t. at 39° C. to induce inflammation. Lung injury was assessed by measuring total protein in the lung lavage fluid.
(§2) First, the compounds can block thrombin-induced cell permeability in human vascular endothelial cells (FIG. 8). […] Mice were pretreated i.p. with 1 mg of test compounds and then treated with […] LPS i.t. at 39° C. to induce inflammation. Lung injury was assessed by measuring total protein in the lung lavage fluid. […] All mice received 50 μg LPS i.t. and were kept 24 h at 39° C.; all treatments 1 mg in 0.5 ml DMSO given 6 h post-LPS; mean±SM, n=5, * p=0.03 vs DMSO #1; † p=0.16 vs DMSO #2. Lung injury was assessed by measuring total protein in the lung lavage fluid.

[11] = system: LPS-induced lung injury; assay: Mouse acute lung injury, treatment 6 h post-LPS (FIG. 10); format: in vivo; details: 50 μg LPS i.t., 24 h at 39° C., 1 mg in 0.5 ml DMSO 6 h post-LPS
Protocol: All mice received 50 μg LPS i.t. and were kept 24 h at 39° C.; all treatments 1 mg in 0.5 ml DMSO given 6 h post-LPS; mean±SM, n=5, * p=0.03 vs DMSO #1; † p=0.16 vs DMSO #2. Lung injury was assessed by measuring total protein in the lung lavage fluid.
as §2

[12] = target: recombinant ERK2 (Homo sapiens, UniProt P28482); assay: Differential scanning fluorimetry (DSF), ERK2; format: binding; details: for ERK2 ΔTm (° C.) @100 μM: change in melting temperature relative to DMSO control in DSF assay; for stabilization of ERK2 in DSF: 10-100 μM
recombinant ERK2, sequence (P28482 whole entry, species assumed): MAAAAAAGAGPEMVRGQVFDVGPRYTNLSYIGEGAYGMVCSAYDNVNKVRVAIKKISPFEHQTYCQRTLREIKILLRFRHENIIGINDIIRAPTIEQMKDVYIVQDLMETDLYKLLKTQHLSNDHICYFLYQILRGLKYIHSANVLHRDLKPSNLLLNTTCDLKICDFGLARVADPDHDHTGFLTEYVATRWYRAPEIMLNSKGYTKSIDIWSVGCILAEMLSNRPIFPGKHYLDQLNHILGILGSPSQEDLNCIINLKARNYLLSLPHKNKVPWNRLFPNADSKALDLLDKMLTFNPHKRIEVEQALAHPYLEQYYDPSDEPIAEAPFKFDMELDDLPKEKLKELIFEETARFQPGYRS

[13] = system: HMVECLs; assay: Cytotoxicity, MTS assay; format: cell-based, human; details: 100 μM for 48 h
[14] = system: HMVECLs; assay: Cytotoxicity, LDH release; format: cell-based, human; details: 100 μM for 48 h
[15] = target: unphosphorylated recombinant human p38α (Homo sapiens, UniProt Q16539); assay: Differential scanning fluorimetry (DSF), p38α; details: for p38α ΔTm (° C.) @100 μM: change in melting temperature relative to DMSO control in DSF assay; for increase in melting temperature of p38α: added at 100 μM
unphosphorylated recombinant human p38α, sequence (Q16539 whole entry): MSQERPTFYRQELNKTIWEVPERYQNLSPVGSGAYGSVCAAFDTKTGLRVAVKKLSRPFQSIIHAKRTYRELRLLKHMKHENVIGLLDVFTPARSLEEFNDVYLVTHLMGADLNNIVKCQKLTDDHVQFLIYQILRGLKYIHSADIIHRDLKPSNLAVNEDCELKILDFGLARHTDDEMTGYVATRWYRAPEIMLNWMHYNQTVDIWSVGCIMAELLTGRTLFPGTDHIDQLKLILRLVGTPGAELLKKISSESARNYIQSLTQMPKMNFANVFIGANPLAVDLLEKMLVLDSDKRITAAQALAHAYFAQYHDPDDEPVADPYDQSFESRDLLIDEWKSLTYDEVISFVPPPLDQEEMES

[16] = target: T2, p38α mutant (R49K/HL 107-8TF/K165R) (Homo sapiens, UniProt Q16539, H107T/K165R/L108F/R49K); assay: DSF, p38α mutant with 4 mutations in CADD-targeted pocket; format: binding; details: four of ten target pocket amino acids substituted
T2 construct: made in house; host or cells: E. coli BL21
T2 sequence (Q16539 whole entry R49K/H107T/L108F/K165R): as the sequence (Q16539 whole entry) above, with R49K, H107T, L108F, K165R counted along it

[17] = target: T3, p38α (Homo sapiens, UniProt Q16539); assay: STD-NMR, p38α; format: binding; details: 200 μM UM101, 5 μM protein
T3 construct: made in house; host or cells: E. coli BL21
T3 sequence (Q16539 whole entry): as the sequence (Q16539 whole entry) above
Protocol: (§3) Spectra were recorded on an Agilent DD2 500-MHz spectrometer equipped with a 5-mm inverse HFCN probe head at 300 K. During each transient, the protein was saturated with a series of 58 […]-shaped pulses (50 ms, 1 ms delay between pulses) using the vendor-supplied STD-ES pulse sequence, for a total saturation time of 3 seconds. The on-resonance irradiation of protein was done at 0.5 ppm and off-resonance irradiation at 30 ppm. The vendor-supplied WATERGATE pulse sequence was used to suppress the water signal in the STD spectrum. The on-resonance and off-resonance pulse sequences were subtracted internally. A total of 16,384 transients were collected for each STD experiment with a 1 second delay between acquisitions, 6000 Hz spectral width, and 1.3 second acquisition time.

[18] = target: T1, p38β; assay: STD-NMR, p38β; format: binding; details: 200 μM UM101, 5 μM protein
Protocol: as §3

[19] = target: T4, mutated p38α (Homo sapiens, UniProt Q16539, H107T/K165R/L108F/R49K); assay: STD-NMR, mutated p38α; format: binding; details: 200 μM UM101, 5 μM protein
T4 construct: made in house; host or cells: E. coli BL21
T4 sequence (Q16539 whole entry R49K/H107T/L108F/K165R): as the sequence (Q16539 whole entry) above, with R49K, H107T, L108F, K165R counted along it
Protocol: as §3

[20] = system: rheumatoid arthritis; details: two trials; cited from earlier work
[21] = system: patients at-risk for ARDS; details: cited from earlier work
[22] = system: patients with hypercholesterolemia; details: cited from earlier work

T1 sequence (Q15759 whole entry): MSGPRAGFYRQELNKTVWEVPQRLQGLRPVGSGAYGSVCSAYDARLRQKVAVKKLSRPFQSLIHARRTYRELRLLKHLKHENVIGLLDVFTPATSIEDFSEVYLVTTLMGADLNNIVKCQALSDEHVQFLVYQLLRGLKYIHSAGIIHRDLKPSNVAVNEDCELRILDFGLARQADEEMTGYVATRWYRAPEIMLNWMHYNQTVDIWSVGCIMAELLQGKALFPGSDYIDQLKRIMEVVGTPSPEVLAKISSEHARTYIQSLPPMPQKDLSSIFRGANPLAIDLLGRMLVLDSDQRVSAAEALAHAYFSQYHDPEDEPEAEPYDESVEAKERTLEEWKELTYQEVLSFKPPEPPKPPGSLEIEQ

## Cc1ccc(-n2nc(C(C)(C)C)cc2NC(=O)Nc2ccc(OCCN3CCOCC3)c3ccccc23)cc1 [BIRB 796]
[1]
  clinical effect: no clinical effect
  serum CRP levels: transiently reduced

## C[S+]([O-])c1ccc(-c2nc(-c3ccncc3)c(-c3ccc(F)cc3)[nH]2)cc1 (centres unmarked) [SB203580, reference compound]
[2]
  stabilization of p38β in DSF: stabilized both p38α and p38β
[3]; 10 μM
  reduction of TNFα/hyperthermia-induced permeability increase for 10 kDa dextran: 50%
[4]; 10 μM
  reduction of hyperthermia-augmented increase in neutrophil TEM: 84%
[5]
  anisomycin-stimulated phosphorylation of MK2 (immunoblot): reduced
[6]
  anisomycin-stimulated phosphorylation of Stat-1 (immunoblot): reduced
[7]
  higher binding affinity for p38α than p38β: ~10 fold
[8]
  number of TNFα-induced genes with expression inhibited: 61 genes
  number of genes with expression increased: 38 genes
[9]; 1000 μg i.p.
  reduction of lavage neutrophil content vs. DMSO-treated controls: 46.8%
[9]
  mice died within 24 h: one of six

## CN(C)c1cccc2c(S(=O)(=O)Nc3ccc(CN4CCS(=O)(=O)CC4)cc3)cccc12 [SF-6-222]
[10]
  protein leak into bronchoalveolar lavage fluid (total protein): reduced protein leak
[11]
  protein leak into bronchoalveolar lavage fluid (total protein): reduced protein leak

## O=C(Nc1ccc(CN2CCOCC2)cc1)c1ccc(Cl)cc1 [SF-7-009]
[10]
  protein leak into bronchoalveolar lavage fluid (total protein): reduced protein leak
[11]
  protein leak into bronchoalveolar lavage fluid (total protein): reduced protein leak

## CN(C)c1cccc2c(S(=O)(=O)Nc3ccc(CN4CCOCC4)cc3)cccc12 [SF-7-044]
[11]
  protein leak into bronchoalveolar lavage fluid (total protein): reduced protein leak

## O=C1c2cc(S(=O)(=O)NCCO)ccc2-c2ccc(S(=O)(=O)NCCO)cc21 [UM60, N2,N7-di(2-hydroxyethyl)-9-oxo-9H-2,7-fluorenedisulfonamiide]
[12]
  ERK2 ΔTm (° C.) @100 μM: 0.195 °C
  stabilization of ERK2 in DSF: not ERK2
[3]; 10 μM
  reduction of TNFα/hyperthermia-induced permeability increase for 10 kDa dextran: no effect
[3]; 25 μM
  reduction of TNFα/hyperthermia-induced permeability increase for 10 kDa dextran: no effect
[3]; 100 μM
  reduction of TNFα/hyperthermia-induced permeability increase for 10 kDa dextran: 71%
[4]; 10 μM
  reduction of hyperthermia-augmented increase in neutrophil TEM: 18%
[4]; 25 μM
  reduction of hyperthermia-augmented increase in neutrophil TEM: 89%
[4]; 50 μM
  reduction of hyperthermia-augmented increase in neutrophil TEM: less than baseline levels
[13]
  toxicity in MTS assay: Neither compound was toxic
[14]
  toxicity in LDH release assay: Neither compound was toxic
[15]
  stabilization of p38α in DSF: stabilized p38α
  p38α ΔTm (° C.) @100 μM: 0.735 °C
  increase in melting temperature of p38α: ~0.7 °C
[9]
  mice died within 24 h: Four of six

## O=C(Nc1ccc(CN2CCS(=O)(=O)CC2)cc1)c1ccc(Cl)cc1 [UM101, 4-chloro-N-{4-[(1,1-dioxo-1lambda˜6˜-,4thiazinan-4-yl)methyl]phenyl}benzaniide]
[12]
  ERK2 ΔTm (° C.) @100 μM: 0.0175 °C
  stabilization of ERK2 in DSF: not ERK2
[2]
  stabilization of p38β in DSF: only stabilized p38α
[16]
  binding to p38α mutant in DSF: no UM101-binding
[17]
  interaction with p38α in STD-NMR: protons in both aromatic rings of UM101 interact with p38α
[18]
  interaction with p38β in STD-NMR: much weaker
[19]
  interaction with mutated p38α in STD-NMR: much weaker
[3]; 10 μM
  reduction of TNFα/hyperthermia-induced permeability increase for 10 kDa dextran: 74%
[3]; 25 μM
  reduction of TNFα/hyperthermia-induced permeability increase for 10 kDa dextran: 89%
[3]; 100 μM
  reduction of TNFα/hyperthermia-induced permeability increase for 10 kDa dextran: > 100%
[4]; 10 μM
  reduction of hyperthermia-augmented increase in neutrophil TEM: 95%
[4]; 25 μM
  reduction of hyperthermia-augmented increase in neutrophil TEM: less than baseline levels
[4]; 50 μM
  reduction of hyperthermia-augmented increase in neutrophil TEM: less than baseline levels
[13]
  toxicity in MTS assay: Neither compound was toxic
[14]
  toxicity in LDH release assay: Neither compound was toxic
[5]
  anisomycin-stimulated phosphorylation of MK2 (immunoblot): reduced
[6]
  anisomycin-stimulated phosphorylation of Stat-1 (immunoblot): reduced
[10]
  protein leak into bronchoalveolar lavage fluid (total protein): reduced protein leak
[15]
  stabilization of p38α in DSF: only stabilized p38α
  p38α ΔTm (° C.) @100 μM: 0.667 °C
  increase in melting temperature of p38α: ~0.7 °C
[9]; 100 μg i.p.
  reduction of lavage neutrophil content vs. DMSO-treated controls: 44.4%
[9]; 300 μg i.p.
  reduction of lavage neutrophil content vs. DMSO-treated controls: 49.5%
[9]; 500 μg i.p.
  reduction of lavage neutrophil content vs. DMSO-treated controls: 55.3%
[9]; 1000 μg i.p.
  reduction of lavage neutrophil content vs. DMSO-treated controls: 54%
[9]; 100, 300, 500 or 1000 μg i.p. 30 min prior to 50 μg LPS i.t. and hyperthermia
  mice survived (24 h): All sixteen

## NC(=O)c1ccc(N(C(N)=O)c2c(F)cccc2F)nc1-c1ccc(F)cc1F [VX-702]
[20]
  proportion of treated subjects with ACR20 symptom score vs. placebo: small increases

## Cc1cc(F)ccc1-c1nc(NC(CO)CO)nc2c1ccc(=O)n2-c1c(F)cccc1F [dilmapimod]
[21]
  safety: safe at the doses administered
  serum C-reactive protein (CRP) levels: modestly reduced

## Cc1c(F)cc(C(=O)NC2CC2)cc1-c1ccc(C(=O)NCC(C)(C)C)cn1 [losmapimod]
[22]
  serum CRP: reduced serum CRP
  vascular relaxation: improved vascular relaxation

Reference: US20230140941A1, “NON-ATP/CATALYTIC SITE P38 MITOGEN ACTIVATED PROTEIN KINASE INHIBITORS” (UNIVERSITY OF MARYLAND, BALTIMORE, priority 2020, published 2023)
